Test results published in patent US11477985B2, “Herbicidal mixtures comprising L-glufosinate or its salt and at least one photosynthesis inhibitor” (BASF SE, priority 2017, dated 2022).

Key:
Assay type in all cases: in vivo
[1] = tested on: Avena fatua; assay: Post emergence treatment, greenhouse pot test, herbicidal activity against AVEFA
From the text: (§1) Synergism can be described as an interaction where the combined effect of two or more compounds is greater than the sum of the individual effects of each of the compounds. The presence of a synergistic effect in terms of percent control, between two mixing partners (X and Y) can be calculated using the Colby equation (Colby, S. R., 1967, Calculating Synergistic and
(§2) When the observed combined control effect is greater than the expected (calculated) combined control effect (E), then the combined effect is synergistic.
(§3) However, the weed control afforded by the compounds, mixtures or compositions is not limited to these species. The analysis of synergism or antagonism between the mixtures or compositions was determined using Colby's equation.
(§4) The culture containers used were plastic flowerpots containing loamy sand with approximately 3.0% of humus as the substrate. The seeds of the test plants were sown separately for each species and/or resistant biotype. For the pre-emergence treatment, the active ingredients, which had been suspended or emulsified in water, were applied directly after sowing by means of finely distributing nozzles. The containers were irrigated gently to promote germination and growth and subsequently covered with transparent plastic hoods until the plants had rooted. This cover caused uniform germination of the test plants, unless this had been impaired by the active ingredients. For the post-emergence treatment, the test plants were first grown to a height of 3 to 15 cm, depending on the plant habit, and only then treated with the active ingredients which had been suspended or emulsified in water. For this purpose, the test plants were either sown directly and grown in the same containers, or they were first grown separately as seedlings and transplanted into the test containers a few days prior to treatment. Depending on the species, the plants were kept at 10-25° C. or 20-35° C., respectively. The test period extended to 20 days after treatment. During this time, the plants were tended, and their response to the individual treatments was evaluated. […]

[2] = tested on: Abutilon theophrasti; assay: Post emergence treatment, greenhouse pot test, herbicidal activity against ABUTH; conditions: scale 0 to 100
From the text: as §1, §2, §3, §4

[3] = tested on: Setaria viridis; assay: Post emergence treatment, greenhouse pot test, herbicidal activity against SETVI; conditions: scale 0 to 100
From the text: as §1, §2, §3, §4

Q: How did the “Herbicidal activity against AVEFA, Found” value ([1]; Diuron 125 g ai/ha alone, scale 0 to 100) turn out when `CN(C)C(=O)Nc1ccc(Cl)c(Cl)c1` [Diuron, diuron] was run?
A: The value was 20.

Q: What about the “Herbicidal activity against AVEFA, Found” value ([1]; Diuron 250 g ai/ha alone, scale 0 to 100) of the same compound?
A: The value was 30.

Q: How did the “Herbicidal activity against ABUTH, Found” value ([2]; Fluometuron 125 g ai/ha alone) turn out when `CN(C)C(=O)Nc1cccc(C(F)(F)F)c1` [Fluometuron, fluometuron] was run?
A: The value was 0.

Q: What about the “Herbicidal activity against ABUTH, Found” value ([2]; Fluometuron 250 g ai/ha alone) of the same compound?
A: Its value is 20.

Q: What does the source list for `CP(=O)(O)CC[C@H](N)C(=O)O` [L-Glufosinate, (2S)-2-amino-4-[hydroxy(methyl)phosphinoyl]butyric acid]?
A: Herbicidal activity against SETVI, Found ([3]; L-Glufosinate 75 g ai/ha alone): 0; Herbicidal activity against SETVI, Found ([3]; L-Glufosinate 150 g ai/ha alone): 70; Herbicidal activity against AVEFA, Found ([1]; L-Glufosinate 300 g ai/ha alone, scale 0 to 100, mean of two replications): 20; Herbicidal activity against ABUTH, Found ([2]; L-Glufosinate 75 g ai/ha alone): 0

Q: `O=C(Nc1ccccc1)Nc1cnns1` [Thidiazuron, thiadizuron] was tested. Which “Herbicidal activity against SETVI, Found” value ([3]; Thidiazuron 50 g ai/ha alone) did it give?
A: Its value is 0.
